In ChEMBL document CHEMBL1201862, “PubChem BioAssay data set” (2004):
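Results reflect a 48-hour exposure of cells in 96-well plates to compound at five concentrations. GI50: concentration for 50% inhibition of growth.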 Active and inactive are the calls of the source. No stated cut-off is given here; in the data, active = GI50 up to about 1.1 µM and inactive = higher.

Columns and labels:
Experiment in all cases: growth of human tumour cells (NCI), 48 h
U-251 = system: U-251
NCI-H460 = system: NCI-H460
K562 = system: K562
RPMI-8226 = system: RPMI-8226
MDA-MB-231 = system: MDA-MB-231
NCI/ADR-RES = system: NCI/ADR-RES
OVCAR-5 = system: OVCAR-5
UO-31 = system: UO-31
SW-620 = system: SW-620
SF-539 = system: SF-539
SK-MEL-5 = system: SK-MEL-5
MDA-N = system: MDA-N
SK-OV-3 = system: SK-OV-3
SNB-75 = system: SNB-75
Hs-578T = system: Hs-578T
PC-3 = system: PC-3
SK-MEL-2 = system: SK-MEL-2
HCT-116 = system: HCT-116
SF-295 = system: SF-295
OVCAR-4 = system: OVCAR-4

| Structure (SMILES) | GI50 (U-251) | GI50 (NCI-H460) | GI50 (K562) | GI50 (RPMI-8226) | GI50 (MDA-MB-231) | GI50 (NCI/ADR-RES) | GI50 (OVCAR-5) | GI50 (UO-31) | GI50 (SW-620) | GI50 (SF-539) | GI50 (SK-MEL-5) | GI50 (MDA-N) | GI50 (SK-OV-3) | GI50 (SNB-75) | GI50 (Hs-578T) | GI50 (PC-3) | GI50 (SK-MEL-2) | GI50 (HCT-116) | GI50 (SF-295) | GI50 (OVCAR-4) |
| --- | --- | --- | --- | --- | --- | --- | --- | --- | --- | --- | --- | --- | --- | --- | --- | --- | --- | --- | --- | --- |
| COc1ccccc1N1C(=O)CC(=O)N(C(=O)CCCCCCCCC(=O)N2C(=O)CC(=O)N(c3ccccc3OC)C2=S)C1=S | 70 µM (inactive) | 83.9 µM (inactive) | 38.1 µM (inactive) | 35.7 µM (inactive) | 43.7 µM (inactive) | 91.6 µM (inactive) | > 100 µM (inactive) | 45.9 µM (inactive) | > 100 µM (inactive) | > 100 µM (inactive) | 52 µM (inactive) | 67.3 µM (inactive) | > 100 µM (inactive) | > 100 µM (inactive) | 69 µM (inactive) | 62.5 µM (inactive) | > 100 µM (inactive) | 56.9 µM (inactive) | > 100 µM (inactive) | 73.1 µM (inactive) |
| O=C1C(=Cc2cccc(Cl)c2)N=C(c2ccccc2)N1n1c(-c2ccccc2)nc2ccccc2c1=O | 28 µM (inactive) | 6 µM (inactive) | 30.3 µM (inactive) | 40.8 µM (inactive) | 50 µM (inactive) | 30.9 µM (inactive) | 67.6 µM (inactive) | 34.4 µM (inactive) | 45.3 µM (inactive) | 27.9 µM (inactive) | 32.4 µM (inactive) | 33.8 µM (inactive) | 47.2 µM (inactive) | 29.9 µM (inactive) | 41.4 µM (inactive) | 28.8 µM (inactive) | 26.2 µM (inactive) | 10.8 µM (inactive) | 39 µM (inactive) | 42.3 µM (inactive) |
| O=C1C(Br)=CC2(C=C1Br)CCNC1=C2C2=NCCc3c[nH]c(c32)C1=O | 0.398 µM (active) | 0.548 µM (active) | 0.028 µM (active) | 0.0355 µM (active) | 0.149 µM (active) | 0.164 µM (active) | 0.69 µM (active) | 0.308 µM (active) | 0.0255 µM (active) | 0.246 µM (active) | 0.126 µM (active) | 0.102 µM (active) | 1.9 µM (inactive) | 0.973 µM (active) | 0.445 µM (active) | 0.307 µM (active) | 0.183 µM (active) | 0.0233 µM (active) | 1.25 µM (inactive) | 0.0794 µM (active) |
| O=S1(=O)OCc2ccccc21 | > 100 µM (inactive) | 34.4 µM (inactive) | > 100 µM (inactive) | 61.1 µM (inactive) | 20.8 µM (inactive) | > 100 µM (inactive) | > 100 µM (inactive) | > 100 µM (inactive) | 85.7 µM (inactive) | 25.2 µM (inactive) | > 100 µM (inactive) | > 100 µM (inactive) | > 100 µM (inactive) | 42.8 µM (inactive) | > 100 µM (inactive) | > 100 µM (inactive) | > 100 µM (inactive) | 37.3 µM (inactive) | > 100 µM (inactive) | 51.1 µM (inactive) |
| COc1cc2c(cc1C)NC(=O)/C2=C/c1c(Cl)n(C)c2ccccc12 | 10 µM (inactive) | 6.71 µM (inactive) | 3.02 µM (inactive) | 3.13 µM (inactive) | 12.9 µM (inactive) | 3.61 µM (inactive) | 12.5 µM (inactive) | 7.05 µM (inactive) | 3.05 µM (inactive) | 12.1 µM (inactive) | 4.79 µM (inactive) | 2.15 µM (inactive) | 12.4 µM (inactive) | 3.34 µM (inactive) | 3.42 µM (inactive) | 5.38 µM (inactive) | 9.66 µM (inactive) | 5.46 µM (inactive) | 7.66 µM (inactive) | 6.87 µM (inactive) |
